Data on 96 sequences can be found in the OligoGym collection.

Bases are written 5' to 3'; sugars and linkages follow in the same order, as letters with counts (s phosphorothioate, o phosphodiester; PS: all linkages phosphorothioate). The collection does not say whether C is 5-methylated. l = locked nucleic acid (LNA); d = 2'-deoxy (DNA)

This data set deals with Tau. Briefly: rat primary cortical neurons, FLIPR, 25 uM ASO.
Take “AAAAAGTCCATTCCCTC (sugars l3 d10 l4, PS)”: the calcium oscillation score is 64 % of control.
To “AAAACATTCTCACCAAACCC (sugars l4 d14 l2, PS)” belongs 83.5 % of control; to “AAAAGTCCATTCCCTCC (sugars l2 d12 l3, PS)”, 64 % of control.
To “AAAATACTCCTCCCTTA (sugars l3 d10 l4, PS)” belongs 67.1 % of control.
Regarding “AAAATATCCTTACCATCC (sugars l4 d10 l4, PS)”, the calcium oscillation score was 70.2 % of control.
As for “AAAATATCCTTACCATCCT (sugars l2 d13 l4, PS)”, the calcium oscillation score is 73.9 % of control.
To “AAAATATCCTTACCATCCTA (sugars l3 d14 l3, PS)” belongs 75.5 % of control; to “AAAATCCTTAATTTAACCAC (sugars l4 d12 l4, PS)”, 64 % of control.
Take AAACAGGATACAGT (sugars l3 d8 l3, PS): the calcium oscillation score is 109 % of control.
To “AAACATCTAAACACCTCAAT (sugars l4 d12 l4, PS)” belongs 78.9 % of control.
To “AAACCAACTCAACATTACCC (sugars l3 d15 l2, PS)” belongs 94.3 % of control; to AAACCATGATCTTAGG (sugars l3 d10 l3, PS), 81.3 % of control.
Turning to “AAACTCATTTACCAATTAT (sugars l4 d11 l4, PS)”, the calcium oscillation score was 70.7 % of control.
For “AAACTCATTTACCAATTATC (sugars l4 d12 l4, PS)”, the calcium oscillation score was 56.8 % of control.
On to AAACTTTTACTCTGACT (sugars l4 d9 l4, PS), for which the calcium oscillation score is 59.4 % of control.
To “AAAGATGAAATTTGCTCTTA (sugars l3 d14 l3, PS)” belongs 145 % of control; to “AAAGCAGGTTAAGTGATTAA (sugars l3 d14 l3, PS)”, 2.59 % of control; to AAAGTACTATCCACTT (sugars l4 d8 l4, PS), 79.1 % of control.
Turning to “AAATATCCTTACCATCCTAT (sugars l2 d15 l3, PS)”, the calcium oscillation score is 78.8 % of control.
To “AAATCAATTCTCATTTCAAC (sugars l4 d12 l4, PS)” belongs 58.2 % of control.
Consider “AAATCCCTCTACTCCAG (sugars l2 d12 l3, PS)”, for which the calcium oscillation score is 51.4 % of control.
On to “AAATCCTTAATTTAACCACA (sugars l4 d12 l4, PS)”, for which the calcium oscillation score is 63.1 % of control.
To “AACAAACAAAAATCCCCTA (sugars l4 d11 l4, PS)” belongs 85.7 % of control.
As to “AACAAACATCTAAACACCTC (sugars l3 d13 l4, PS)”, the calcium oscillation score is 75.1 % of control.
To “AACACCTTTTAATTCATT (sugars l4 d10 l4, PS)” belongs 74.8 % of control.
For “AACAGGAGAGCCATTTCCCA (sugars l3 d14 l3, PS)”, the calcium oscillation score is 57.1 % of control.
For the sequence “AACATATATATTACACTTC (sugars l4 d11 l4, PS)”, the calcium oscillation score is 111 % of control.
With AACATCACCAGCCTTC (sugars l3 d9 l4, PS), the calcium oscillation score was 50.7 % of control.
To AACATCATGTCACACA (sugars l4 d8 l4, PS) belongs 56.3 % of control; to AACATCATGTCACACAC (sugars l4 d9 l4, PS), 39 % of control.
To “AACATCTAAACACCTCAA (sugars l4 d10 l4, PS)” belongs 78.9 % of control.
To “AACATCTAAACACCTCAATC (sugars l4 d12 l4, PS)” belongs 77.6 % of control; to “AACATTCTCACCAAACCCA (sugars l3 d14 l2, PS)”, 78.4 % of control.
Regarding “AACCAACTCAACATTACCCT (sugars l2 d16 l2, PS)”, the calcium oscillation score is 86.7 % of control.
To “AACCAACTTTCATCTACT (sugars l4 d11 l3, PS)” belongs 73.5 % of control; to “AACCAACTTTCATCTACTTT (sugars l4 d14 l2, PS)”, 63 % of control; to AACCAATTAACCGAAC (sugars l3 d10 l3, PS), 138 % of control.
To “AACCAATTAACCGAACTGCG (sugars l3 d14 l3, PS)” belongs 18.1 % of control.
To AACCACTCTAACATCTT (sugars l4 d9 l4, PS) belongs 88.3 % of control; to “AACCACTCTAACATCTTA (sugars l4 d11 l3, PS)”, 86.8 % of control.
As for “AACCACTCTTATTCTTTAA (sugars l4 d11 l4, PS)”, the calcium oscillation score was 77.1 % of control.
To “AACCACTCTTATTCTTTAAA (sugars l4 d12 l4, PS)” belongs 91.3 % of control; to “AACCAGCTAGTGGTGCCACC (sugars l3 d14 l3, PS)”, 33 % of control; to “AACCATTAACTGCCTAT (sugars l4 d10 l3, PS)”, 53 % of control.
To AACCCCATAGACATAA (sugars l4 d8 l4, PS) belongs 78.6 % of control.
To “AACCCCTTCAACATCAGC (sugars l2 d12 l4, PS)” belongs 64.9 % of control; to “AACCGTTTTCTTACCAC (sugars l2 d11 l4, PS)”, 60.1 % of control.
“AACGCACCAGGAACCTTCCA (sugars l3 d14 l3, PS)”: the calcium oscillation score was 51.4 % of control.
To AACTAAATTTACCTCA (sugars l4 d8 l4, PS) belongs 88.1 % of control.
To “AACTCAAATCAATTCTCATT (sugars l4 d12 l4, PS)” belongs 73.2 % of control; to “AACTCATCAACACCTTTTAA (sugars l3 d13 l4, PS)”, 70.8 % of control; to “AACTCATTTACCAATTATCT (sugars l4 d13 l3, PS)”, 67.3 % of control.
To “AACTCTAAGTAGACCCTGGC (sugars l3 d14 l3, PS)” belongs 14.3 % of control.
As to “AACTGATTCCATCACCA (sugars l3 d11 l3, PS)”, the calcium oscillation score is 69.7 % of control.
To AACTGCGAGGAGCAGC (sugars l3 d10 l3, PS) belongs 25.9 % of control; to AACTGGTTAGCCCTAA (sugars l3 d10 l3, PS), 31.3 % of control.
In the case of AACTGGTTTGTAGACT (sugars l3 d10 l3, PS), the calcium oscillation score was 0 % of control.
To “AACTGGTTTGTAGACTATTT (sugars l3 d14 l3, PS)” belongs 0 % of control.
Consider AACTTACCAGTTTTTCA (sugars l4 d9 l4, PS), for which the calcium oscillation score was 62.3 % of control.
To AACTTCTAATTTAGTC (sugars l4 d8 l4, PS) belongs 81.9 % of control; to “AACTTCTAGTTATACAGTTG (sugars l3 d14 l3, PS)”, 26.2 % of control.
To AACTTTTACTCTGACTA (sugars l4 d9 l4, PS) belongs 51.9 % of control; to “AAGACCAAGCAGAGATAAAC (sugars l3 d14 l3, PS)”, 16.7 % of control.
To AAGAGGCACAAGTCCT (sugars l3 d10 l3, PS) belongs 81.6 % of control; to AAGAGGGCAGCAGGCC (sugars l3 d10 l3, PS), 73.1 % of control.
Take “AAGAGTCACTGCACTGCATT (sugars l3 d14 l3, PS)”: the calcium oscillation score is 30.9 % of control.
To AAGATACATGCGTCCT (sugars l3 d10 l3, PS) belongs 112 % of control; to AAGATGAAATTTGCTC (sugars l3 d10 l3, PS), ≥ 200 % of control; to AAGCAATAGCAAACA (sugars l3 d9 l3, PS), 142 % of control.
In the case of “AAGCAGGTTAAGTGATTAAC (sugars l3 d14 l3, PS)”, the calcium oscillation score is 12.9 % of control.
For AAGCATTTCAAGATAC (sugars l3 d10 l3, PS), the calcium oscillation score is 66.7 % of control.
To “AAGCCCATTTACAATTC (sugars l4 d10 l3, PS)” belongs 81.1 % of control; to “AAGCTTCCACATTTTAC (sugars l4 d10 l3, PS)”, 68.4 % of control; to AAGGTCAGCTTGTGGG (sugars l3 d10 l3, PS), 11.4 % of control.
In the case of AAGTCCCGAGCCAAA (sugars l3 d9 l3, PS), the calcium oscillation score is 102 % of control.
With AAGTCCCGAGCCAAAG (sugars l3 d10 l3, PS), the calcium oscillation score was 91.8 % of control.
To “AAGTCCCGAGCCAAAGCCGA (sugars l3 d14 l3, PS)” belongs 0 % of control.
Turning to “AAGTGATTAACCAATTAACC (sugars l3 d14 l3, PS)”, the calcium oscillation score was 57 % of control.
To AATAACATTAACCCTT (sugars l4 d8 l4, PS) belongs 72 % of control; to AATAAGAAAGGAACGC (sugars l3 d9 l4, PS), 85.7 % of control.
To AATAAGAAAGGAACGC (sugars l3 d10 l3, PS) belongs 110 % of control; to AATAAGAAAGGAACGC (sugars l4 d7 l5, PS), 97.6 % of control.
To AATAAGAAAGGAACGC (sugars l4 d8 l4, PS) belongs 5.95 % of control.
Take AATAAGAAAGGAACGC (sugars l4 d9 l3, PS): the calcium oscillation score was 102 % of control.
To AATAAGAAAGGAACGC (sugars l5 d6 l5, PS) belongs 113 % of control; to AATAAGAAAGGAACGC (sugars l5 d7 l4, PS), 121 % of control; to “AATACAAACAGCCTCCC (sugars l2 d12 l3, PS)”, 61.6 % of control.
To “AATACATCAATAGAAGGCAA (sugars l3 d14 l3, PS)” belongs 16.1 % of control.
For the sequence “AATAGATCTTTCCCCTCC (sugars l2 d13 l3, PS)”, the calcium oscillation score is 76.7 % of control.
Take AATAGCAAACAGGAT (sugars l3 d9 l3, PS): the calcium oscillation score is 3.83 % of control.
To AATAGCAAACAGGATA (sugars l3 d10 l3, PS) belongs 82.4 % of control; to “AATATCCTTACCATCCTATC (sugars l2 d14 l4, PS)”, 59.1 % of control.
To AATATTACACCATCCA (sugars l4 d8 l4, PS) belongs 101 % of control.
To AATATTACACCATCCAA (sugars l4 d9 l4, PS) belongs 95.7 % of control; to AATATTACATCAGTCT (sugars l4 d8 l4, PS), 34.6 % of control; to “AATCAATTCTCATTTCAACC (sugars l4 d13 l3, PS)”, 63.9 % of control.
